Data published in US7608577B2, “Peptidyl ketones as inhibitors of DPIV” (OSI Pharmaceuticals, Inc., priority 2001, dated 2009).
pIC50: −log10 of the molar value.

Key:
[1] = molecular target: T1, Angiotensin-I converting enzyme (ACE) (Oryctolagus cuniculus, UniProt P12822); assay: Cross reacting enzymes: ACE; format: biochemical; details: Sigma enzyme A-6778
T1 construct: purchased Sigma A-6778
T1 sequence (P12822 34-1310): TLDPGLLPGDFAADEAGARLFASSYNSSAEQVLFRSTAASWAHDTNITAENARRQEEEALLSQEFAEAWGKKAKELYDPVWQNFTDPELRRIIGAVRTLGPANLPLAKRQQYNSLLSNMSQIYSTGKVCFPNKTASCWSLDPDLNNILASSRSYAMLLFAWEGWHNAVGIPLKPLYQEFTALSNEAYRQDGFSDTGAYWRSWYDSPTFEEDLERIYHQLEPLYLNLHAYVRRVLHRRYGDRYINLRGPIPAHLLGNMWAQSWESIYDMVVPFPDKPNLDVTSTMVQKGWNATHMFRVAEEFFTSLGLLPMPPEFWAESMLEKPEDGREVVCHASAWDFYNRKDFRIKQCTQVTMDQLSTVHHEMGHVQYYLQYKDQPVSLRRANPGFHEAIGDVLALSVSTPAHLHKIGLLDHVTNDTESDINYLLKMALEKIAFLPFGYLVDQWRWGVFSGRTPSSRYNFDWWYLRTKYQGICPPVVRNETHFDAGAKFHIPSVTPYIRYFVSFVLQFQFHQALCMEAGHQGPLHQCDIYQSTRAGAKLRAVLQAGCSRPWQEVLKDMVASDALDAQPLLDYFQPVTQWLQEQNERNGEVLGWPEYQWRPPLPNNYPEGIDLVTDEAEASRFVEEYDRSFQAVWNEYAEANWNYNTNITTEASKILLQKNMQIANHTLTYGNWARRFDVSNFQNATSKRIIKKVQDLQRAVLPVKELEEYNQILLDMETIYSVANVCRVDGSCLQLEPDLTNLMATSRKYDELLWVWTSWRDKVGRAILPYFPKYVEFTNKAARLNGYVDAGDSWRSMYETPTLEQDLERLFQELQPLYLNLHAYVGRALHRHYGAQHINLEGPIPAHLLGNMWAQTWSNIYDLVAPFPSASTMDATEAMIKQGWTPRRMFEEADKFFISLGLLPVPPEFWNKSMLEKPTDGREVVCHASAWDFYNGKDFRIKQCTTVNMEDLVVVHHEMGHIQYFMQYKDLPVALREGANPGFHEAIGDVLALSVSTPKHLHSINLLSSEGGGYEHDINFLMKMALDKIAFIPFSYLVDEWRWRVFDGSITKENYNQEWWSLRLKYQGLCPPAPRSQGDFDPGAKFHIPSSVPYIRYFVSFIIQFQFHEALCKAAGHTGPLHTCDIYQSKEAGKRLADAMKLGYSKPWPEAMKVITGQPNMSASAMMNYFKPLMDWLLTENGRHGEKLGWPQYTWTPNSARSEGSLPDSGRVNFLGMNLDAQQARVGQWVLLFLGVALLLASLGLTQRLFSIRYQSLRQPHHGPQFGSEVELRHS
Experimental: For IC50 determination of ACE an enzyme produced by Sigma was used (Prod. No. A-6778). The assay procedure and calculation of activity described by the manufacturer was adapted to half of the described volumes.
The IC50-values were calculated using Graphit 4.0.15 (Erithacus Software, Ltd., UK).

porcine DPIV = porcine DPIV (Sus scrofa, UniProt P22411); assay: Determination of IC50 values against DPIV; format: biochemical; details: Gly-Pro-pNA 0.4 mM, APN, 30° C., HEPES pH7.6, read-out: IC50
Chain of porcine DPIV (P22411 whole entry): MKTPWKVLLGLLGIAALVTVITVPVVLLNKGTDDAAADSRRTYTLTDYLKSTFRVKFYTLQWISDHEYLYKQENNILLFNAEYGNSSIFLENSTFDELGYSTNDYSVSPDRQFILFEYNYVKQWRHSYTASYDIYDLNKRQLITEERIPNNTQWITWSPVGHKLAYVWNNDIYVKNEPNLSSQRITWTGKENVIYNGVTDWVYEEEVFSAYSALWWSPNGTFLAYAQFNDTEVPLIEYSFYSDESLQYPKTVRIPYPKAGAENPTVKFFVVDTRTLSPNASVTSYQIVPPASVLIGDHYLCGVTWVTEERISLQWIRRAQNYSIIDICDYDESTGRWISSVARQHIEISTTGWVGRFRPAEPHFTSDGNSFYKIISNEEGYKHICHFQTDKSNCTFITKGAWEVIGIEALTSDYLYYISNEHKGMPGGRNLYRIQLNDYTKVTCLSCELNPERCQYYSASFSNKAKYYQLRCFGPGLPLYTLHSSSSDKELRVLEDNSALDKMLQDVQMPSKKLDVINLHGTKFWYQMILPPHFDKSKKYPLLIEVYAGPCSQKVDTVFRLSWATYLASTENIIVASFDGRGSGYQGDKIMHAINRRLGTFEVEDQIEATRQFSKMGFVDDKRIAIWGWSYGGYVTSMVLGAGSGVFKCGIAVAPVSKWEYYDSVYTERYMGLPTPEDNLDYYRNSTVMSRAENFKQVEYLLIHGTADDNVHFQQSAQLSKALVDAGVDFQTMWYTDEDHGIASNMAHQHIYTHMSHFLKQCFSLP
Experimental: 100 μl inhibitor stock solution was mixed with 100 μl buffer (HEPES pH7.6) and 20 μl diluted porcine DPIV and preincubated at 30° C. Reaction was started by addition of a mixture of 50 μl substrate (Gly-Pro-pNA, final concentration 0.4 mM) and 2 μl APN stock solution. Formation of the product pNA was measured at 405 nm and 30° C. over 10 min using the HTS 7000Plus plate reader (Perkin Elmer) and slopes were calculated. The final inhibitor concentrations ranged between 1 mM and 30 nM. For calculation of IC50 GraFit 4.0.13 (Erithacus Software) was used.

Br.CC(=O)OCC(=O)[C@@H]1CCCN1C(=O)[C@@H](NC(=O)[C@H](C)N)C(C)C [H-Ala-Val-Pro-CH2O—CO—CH3*HBr, 2-[(Acetyloxy-methyl)carbonyl]-1-N-[(L)-Alanyl-(L)-Valinyl]-(2S)-pyrrolidine hydrobromide]
ACE IC50 [1]: no inhibition | pIC50 (porcine DPIV): 7.99

Br.CC(C)[C@H](NC(=O)[C@H](C)N)C(=O)N1CCC[C@H]1C(=O)COC(=O)c1ccccc1 [H-Ala-Val-Pro-CO—CH2O—CO—Ph*HBr, 2-[(Benzoyloxy-methyl)carbonyl]-1-N-[{(L)-Alanyl}-(L)-Valinyl]-(2S)-pyrrolidine hydrobromide]
ACE IC50 [1]: no inhibition

Br.CC(=O)[C@@H]1CCCN1C(=O)[C@@H](NC(=O)[C@H](C)N)C(C)C [H-Ala-Val-Pro-Me*HBr, 2-Methylcarbonyl-1-N-[(L)-Alanyl-(L)-Valinyl]-(2S)-pyrrolidine hydrobromide]
ACE IC50 [1]: no inhibition | pIC50 (porcine DPIV): 6.24
